Reference: PubChem BioAssay (NCI)
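How tested: cells in 96-well plates exposed to compound for 48 hours at five concentrations. TGI: concentration producing complete growth inhibition.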

Tests used:
Experiment in all cases: NCI-60 cell line screen, 48 h
EKVX NSCLC = tested on: EKVX NSCLC
RPMI-8226 leukemia = tested on: RPMI-8226 leukemia
M14 melanoma = tested on: M14 melanoma
SF-268 CNS = tested on: SF-268 CNS
HOP-18 NSCLC = tested on: HOP-18 NSCLC
KM12 colon = tested on: KM12 colon
K-562 leukemia = tested on: K-562 leukemia
UACC-62 melanoma = tested on: UACC-62 melanoma
U251 CNS = tested on: U251 CNS
HCC-2998 colon = tested on: HCC-2998 colon
MOLT-4 leukemia = tested on: MOLT-4 leukemia
NCI-H522 lung = tested on: NCI-H522 lung
LXFL 529 NSCLC = tested on: LXFL 529 NSCLC
A549 NSCLC = tested on: A549 NSCLC
NCI-H226 lung = tested on: NCI-H226 lung
SW-620 colon = tested on: SW-620 colon
UACC-257 melanoma = tested on: UACC-257 melanoma
SF-539 CNS = tested on: SF-539 CNS
IGROV1 ovarian = tested on: IGROV1 ovarian
OVCAR-4 ovarian = tested on: OVCAR-4 ovarian
SK-MEL-28 melanoma = tested on: SK-MEL-28 melanoma
KM20L2 colon = tested on: KM20L2 colon
HOP-62 NSCLC = tested on: HOP-62 NSCLC
SN12C renal = tested on: SN12C renal
HCT-15 colon = tested on: HCT-15 colon
OVCAR-3 ovarian = tested on: OVCAR-3 ovarian
DLD-1 colon = tested on: DLD-1 colon
SNB-75 CNS = tested on: SNB-75 CNS
MALME-3M melanoma = tested on: MALME-3M melanoma
SK-OV-3 ovarian = tested on: SK-OV-3 ovarian
CCRF-CEM leukemia = tested on: CCRF-CEM leukemia
SK-MEL-5 melanoma = tested on: SK-MEL-5 melanoma
NCI-H460 lung = tested on: NCI-H460 lung
LOX IMVI melanoma = tested on: LOX IMVI melanoma
M19-MEL melanoma = tested on: M19-MEL melanoma
DMS 114 small cell lung = tested on: DMS 114 small cell lung
UO-31 renal = tested on: UO-31 renal
HT29 colon = tested on: HT29 colon
RXF 393 renal = tested on: RXF 393 renal
OVCAR-8 ovarian = tested on: OVCAR-8 ovarian
A498 renal = tested on: A498 renal
COLO 205 colon = tested on: COLO 205 colon
CAKI-1 renal = tested on: CAKI-1 renal
HL-60(TB) leukemia = tested on: HL-60(TB) leukemia
SK-MEL-2 melanoma = tested on: SK-MEL-2 melanoma
RXF-631 renal = tested on: RXF-631 renal
SF-295 CNS = tested on: SF-295 CNS
SNB-78 CNS = tested on: SNB-78 CNS
ACHN renal = tested on: ACHN renal
DMS 273 small cell lung = tested on: DMS 273 small cell lung
HCT-116 colon = tested on: HCT-116 colon
786-0 renal = tested on: 786-0 renal
SNB-19 CNS = tested on: SNB-19 CNS
TK-10 renal = tested on: TK-10 renal
NCI-H23 lung = tested on: NCI-H23 lung
XF 498 CNS = tested on: XF 498 CNS
HOP-92 NSCLC = tested on: HOP-92 NSCLC
SR leukemia = tested on: SR leukemia
OVCAR-5 ovarian = tested on: OVCAR-5 ovarian

Measured: TGI

O=C(NCCCN1CCN(CCCNC(=O)c2cnc3ccccc3n2)CC1)c1cnc2ccccc2n1
not listed: TK-10 renal | NCI-H23 lung | XF 498 CNS | HOP-92 NSCLC | SR leukemia | OVCAR-5 ovarian
> 100 µM: all other assays above

CC(C)(O)[C@@H]1CCC(C)([C@H]2[C@@H](O)CC3(C)C4CC(OC5OC(CO)C(O)C(O)C5O)C5C(C)(C)[C@@H](OC6OCC(O)C(O)C6O)CC[C@@]56C[C@@]46CC[C@]23C)O1 (stereo partly drawn)
not listed: HOP-62 NSCLC | A498 renal | CAKI-1 renal | RXF-631 renal
> 100 µM: all other assays above
